# Results reported in patent US20230322812A1, “CRYSTALLINE FORM OF HETEROBICYCLIC COMPOUND” (TAIHO PHARMACEUTICAL CO., LTD., priority 2020, published 2023).
# Key:
# [1] = Dynamic vapor sorption (DVS) system analysis; type: physicochemical
# Description: Dynamic vapor sorption (DVS) system analysis was performed under the following conditions.
# Apparatus: VTI SA+(manufactured by TA Instruments Inc.)
# Drying temperature: 60° C.
# Drying equilibrium: Within the range not exceeding 300 minutes, the sample was confirmed not to decrease by 0.01 wt % in 5 minutes
# Measurement temperature: 25° C.
# Humidification equilibrium: Within the range not exceeding 120 minutes, the sample was confirmed not to increase by 0.01 wt % in 5 minutes
# Relative Humidity Program: An increase by 5% RH from 5% RH to 95% RH and a decrease by 5% RH from 95% RH to 5% RH
# A dedicated quartz holder was filled with 10 to 15 mg of crystal I of compound 1, and the weight of each sample at each humidity was continuously measured and recorded under the conditions described above. The device and data processing were handled in accordance with the method and procedure instructed for each device.
# [2] = Oral absorbability in rats (plasma concentration of compound 1); type: in vivo; conditions: 30 mg/kg, male Sprague Dawley rats
# Description: Crystal I of compound 1 was suspended in a 0.5% HPMC aqueous solution, and orally administered to male Sprague Dawley rats which were supplied from Charles River Laboratories Japan, Inc. in a dosage of 30 mg/kg. After 1, 2, 4, 6, 8, and 24 hours from administration, blood of each rat was collected from the left jugular vein, and the concentration of compound 1 in plasma was measured.
# [3] = Differential scanning calorimetry (phase transition on heating); type: physicochemical; conditions: crystal I of Example 1; temperature increased
# Description: (ii) Differential Scanning calorimetry Measurement (DSC Measurement)
# DSC measurement was performed under the following conditions.
# Device: METTLER TOLEDO: DSC1 STAR System
# Sample Container: made of aluminum
# Temperature Range: 25 to 400° C.
# Temperature Increase Rate: 10° C./min
# Atmospheric Gas: Nitrogen
# Nitrogen Gas Flow: 30 ml/min
# (§1) Crystal I of compound 1 was stored at 40° C. (humidity is not controlled), 40° C. (humidity 75%), and 60° C. (humidity is not controlled) for 4 weeks. Thereafter, the chemical purity was measured by high-performance liquid chromatography, and the change was 0.5% or less under all conditions.
# [4] = Solid stability of crystal I (storage, chemical purity by HPLC); type: physicochemical; conditions: stored at 40° C. (humidity not controlled), 40° C. (humidity 75%) and 60° C. (humidity not controlled) for 4 weeks, all conditions
# Description: (iii) High-Performance Liquid Chromatography
# Measurement by high-performance liquid chromatography was performed under the following conditions.
# Mobile Phase A: 10 mM phos. Buffer (pH6.3)/acetonitrile (95:5)
# Mobile Phase B: acetonitrile
# Column: Gemini C18 (4.6x 150 mm, 3 μm)/Phenomenex
# as §1
structure (smiles),measurement,setting,value
"Cn1nc2ccc(-c3c[nH]c4nc(N5[C@H]6CC[C@@H]5[C@H](N)C6)n(C)c(=O)c34)c(Cl)c2c1Cl (single isomer, unassigned) [Crystal I]",change in weight due to changes in humidity (DVS),"[1]; 25° C., 5% RH to 95% RH and back to 5% RH",no changes in weight
same,powder X-ray crystal analysis before and after moisture adsorption and desorption,[1]; before and after DVS moisture adsorption and desorption,did not change
same,oral absorbability (plasma concentration reached),[2]; 1-24 hours after administration,achieved a sufficient concentration that provides a medicinal effect
same,Cmax,"[2]; rat, suspended in 0.5% HPMC aqueous solution, plasma",3.5 µM
same,AUC(0-t),"[2]; rat, suspended in 0.5% HPMC aqueous solution, plasma, read-out: AUC0-24",37 µM·h
same,phase transition peak in DSC measurement,[3],no peak indicating a phase transition
same,change of chemical purity after storage,[4],≤ 0.5%
